Legend:
[1] = system: AMPA receptor; conditions: cited from earlier work
[2] = rat, in vivo, ip
Excerpt: To test the ability of invention compounds to pass the blood-brain barrier, Invention Compound II was labelled with carbon-11.
Radiolabelled Invention Compound II (see the table above) is synthesized by the following scheme (wherein the numbers in parenthesis refer to the quantity of reagent used, in millimoles): [drawing 31]
wherein Ar is aryl (such as methylenedioxybenzene), Im is imidazole (thus, ImHCl is imidazole hydrochloride), and R is an alkyl or alkylene radical (so that R2NH is, for example, piperidine). ^11C-labelled CO2 is produced by cyclotron irradiation and subsequently used in the above-described synthetic scheme. The time to complete the synthesis is about […] (2 times the half-life of carbon-11). After purification of [^11C]II on C18 Sep Pak, 260 μCi was diluted with 20 mg of nonradioactive II as carrier in a 1-ml solution of 23% propylene glycol and 10% ethanol in physiologically-buffered saline in order to simulate the dosage of 100 mg/Kg that was used in behavioral studies. The final 1 ml of solution was administered to a 200 g rat under halothane anesthesia (1.4-1.7% in oxygen) by intraperitoneal (i.p.) injection.
Biodistribution of the radiotracer in the body of the rat was monitored by a positron camera (Scanditronix PC2048-15B) and the time-activity curves were constructed using a Vax 3500 (Digital Equipment Corporation) and shown in FIG. 5.

[3] = biological target: T1, AMPA receptors; assay: field EPSPs in field CA1 of in vitro slices of rat hippocampus; assay type: cell-based; conditions: for EC50: estimated from log dose/response curves, maximal response of 85% increase assumed where limited solubility prevented a maximum, read-out: EC50 (percent increase in field EPSP amplitude)
T1 construct: EC50 (percent increase in field EPSP amplitude); other: estimated from log dose/response curves; maximal response of 85; effect on field EPSP amplitude and duration; other: 1.5 mM, 15 minute infusion; enhancement of the area of the field EPSP; other: 100 μM; mean and S.D. of 4
Experimental: The physiological effects of invention compounds can be tested in vitro with slices of rat hippocampus as follows. Excitatory responses (field EPSPs) are measured in hippocampal slices which are maintained in a recording chamber continuously perfused with artificial cerebrospinal fluid (ACSF).
To conduct these tests, the hippocampus was removed from anesthetized, 2 month old Sprague-Dawley rats and in vitro slices (400 micrometers thick) were prepared and maintained in an interface chamber at 35° C. using conventional techniques [see, for example, Dunwiddie and Lynch, J. Physiol. Vol. 276: 353-367 (1978)]. The chamber was constantly perfused at 0.5 ml/min with ACSF containing (in mM): NaCl 124, KCl 3, KH2PO4 1.25, MgSO4 2.5, CaCl2 3.4, NaHCO3 26, glucose 10 and L-ascorbate 2. A bipolar nichrome stimulating electrode was positioned in the dendritic layer (stratum radiatum) of the hippocampal subfield CA1 close to the border of subfield CA3.
Current pulses (0.1 msec) through the stimulating electrode activate a population of the Schaffer-commissural (SC) fibers which arise from neurons in the subdivision CA3 and terminate in synapses on the dendrites of CA1 neurons. Activation of these synapses causes them to release the transmitter glutamate. Glutamate binds to the post-synaptic AMPA receptors which then transiently open an associated ion channel and permit a sodium current to enter the postsynaptic cell. This current results in a voltage in the extracellular space (the field excitatory post-synaptic potential or field “EPSP”) which is recorded by a high impedance recording electrode positioned in the middle of the stratum radiatum of CA1.
For the experiments summarized in FIG. 1, the intensity of the stimulation current was adjusted to produce half-maximal EPSPs (typically about 1.5-2.0 mV). Paired stimulation pulses were given every 40 sec with an interpulse interval of 200 msec (see below). The field EPSPs of the second response were digitized and analyzed to determine amplitude, half-width, and response area. If the responses were stable for 15-30 minutes (baseline), test compounds were added to the perfusion lines for a period of about 15 minutes. The perfusion was then changed back to regular ACSF.
Paired-pulse stimulation was used since stimulation of the SC fibers, in part, activates interneurons which generate an inhibitory postsynaptic potential (IPSP) in the pyramidal cells of CA1. This feed forward IPSP typically sets in after the EPSP reaches its peak. It accelerates the repolarization and shortens the decay phase of the EPSP, and thus could partially mask the effects of the test compounds. One of the relevant features of the feed-forward IPSP is that it can not be reactivated for several hundred milliseconds following a stimulation pulse. This phenomenon can be employed to advantage to eliminate IPSP by delivering paired pulses separated by 200 milliseconds and using the second (“primed”) response for data analysis.
The variables set forth in the table refer to the following generic structure: […]

[4] = system: AMPA receptors; assay: long-term potentiation (theta burst stimulation) in CA1 field of hippocampal slices; assay type: cell-based, rat; conditions: 1.5 mM infused 15 minutes prior to theta burst stimulation; five experiments; p<0.02
Experimental: Long-term potentiation (LTP; a stable increase in the EPSP size of single responses after brief periods of high frequency stimulation) was elicited in the CA1 field of hippocampal slices in the absence (see FIG. 3, stippled bars, N=6) and in the presence of 1.5 mM of Invention Compound I (see FIG. 3, striped bars, N=5). In the latter case, the amount of potentiation was determined after washing out the test compound and comparing the response size with that before test compound infusion. Data presented in FIG. 3 show the percent increase in the EPSP amplitude (mean and S.D.) at 40, 60, and 90 minutes after LTP induction.
For these studies, field EPSPs in slices of hippocampus were elicited by single stimulation pulses and recorded by extracellular electrodes as described in Example II. After collecting responses every 40 seconds for 20-30 minutes to establish a baseline, LTP was induced with ten short bursts of pulses delivered to the CA3 axons; each burst consisted of four pulses separated by 10 milliseconds; the interval between the bursts was 200 milliseconds. This pattern of axon stimulation mimics a discharge rhythm observed in the hippocampus of animals engaged in learning and is referred to as the “theta burst stimulation paradigm” [see, for example, Larson and Lynch in Science Vol. 232: 985-988 (1986)]. […]

[5] = system: AMPA receptor; assay type: in vivo, rat; conditions: 120-180 mg/kg i.p.
Experimental: Stimulating and recording electrodes were placed in the hippocampus of anesthetized rats so as to activate and monitor the same synaptic responses as in the slice studies described in Example XV. […] The time constant for the decay of the EPSP is a measure for the duration of the response.
In these experiments, male Sprague-Dawley rats were anesthetized with urethane (1.7 g/kg) and body temperature was maintained at 37° C. with the use of a heat lamp. A stimulation electrode (two twisted stainless steel wires, 150 μm diameter, insulated with teflon) was placed stereotaxically in the trajectory of the Schaffer collateral (SC) pathway from CA3 to CA1 of the hippocampus (coordinates relative to Bregma: 3.5 mm P., 3.5 mm L., and 3.0-3.7 mm V). […]
Negative field potentials reflecting dendritic EPSPs evoked by SC stimulation (0.1 ms pulses, 10-100 μA) with paired pulses (inter-pulse interval of 200 msec; see methodology described in Example XV) were amplified 500 times and digitized by computer at 20 sec intervals throughout each experiment. […] Decay time constants were determined by single exponential fits to the decay phase of the synaptic response and expressed as a percent of the value obtained during the pre-injection control period.

In the case of `COc1ccc(C(=O)N2CC[C@@H](O)C2=O)cc1` [AHP, (R)-1-p-anisoyl-3-hydroxy-2-pyrrolidinone], the “facilitation of AMPA receptor mediated responses in slices” value ([1]; nootropics tested in slices) is listed as “facilitate AMPA receptor mediated responses”.
With `O=C(c1ccc2c(c1)OCO2)N1CCCCC1` [Compound II, 1-(1,3-benzodioxol-5-ylcarbonyl)-piperidine] the “brain distribution relative to head excluding the cranial cavity” value [2] was “approximately equal”, the “brain distribution relative to heart” value [2] was “two-thirds” and the “brain distribution relative to liver” value [2] was “approximately one-quarter”. For the same molecule, the “passage of the blood-brain barrier” value [2] was “passes freely through the blood-brain barrier” and the “time to plateau of brain uptake” value [2] was 5 to 10 min.
`O=C(c1ccc2ncoc2c1)N1CC=CCC1` [Compound IX, 1-(1,3-benzoxazol-6-ylcarbonyl)-1,2,3,6-tetrahydodyridine] gave an EC50 [3] of 4000 µM.
In the case of `O=C(c1ccc2c(c1)OCCO2)N1CC=CCC1` [Compound I], the “fold greater increase in the response area than aniracetam” value ([3]; 750 μM) is reported as “nine-fold”, the “effect on synaptic response compared with aniracetam” value ([3]; 750 μM versus aniracetam 1500 μM, 15 minute infusion) is reported as “much larger effect” and the “reversibility of effect upon washout” value ([3]; after 15 minute infusion) is reported as “fully reversible upon washout”. For the same molecule, the “times greater effect on response area than aniracetam at the same concentrations” value ([3]; dosages in the range of 750 μM to 1.5 μM) was 6-9 times, the “degree of stable long-term potentiation versus stimulation in absence of drug” value [4] was “nearly twice as large” and the “time within which the effect reversed after injection” value [5] was 60 to 120 min. The “effect on duration (decay time constant) of synaptic response” value ([5]; anesthetized rats, n=8) was “rapid increase in the duration of the synaptic response”.
Work on `O=C(c1cccc2c1OCCO2)N1CC=CC1` [Compound VIII, 1-(1,4-benzodioxan-5-ylcarbonyl)-3-pyrroline] yielded an EC50 [3] of 3000 µM.
`O=C(c1ccc2ncoc2c1)N1CCCCC1` [Compound X, 1-(1,3-benzoxazol-6-ylcarbonyl)-piperidine] showed an EC50 [3] of 1300 µM.
Molecule `O=C(c1ccc2ocnc2c1)N1CC=CCC1` [Compound XI, 1-(1,3-benzoxazol-5-ylcarbonyl)-1,2,3,6-tetrahydropyridine] has an EC50 [3] of 3000 µM.
For `O=C(c1ccc2nc[nH]c2c1)N1CCCCC1` [Compound XII, 1-(1,3-benzimidazol-5-ylcarbonyl)-piperidine], the EC50 [3] was 5000 µM.
For `COc1ccc(C(=O)NCCCC(=O)O)cc1` [anisoyl-GABA], the aniracetam-like effects [1] is listed as “no aniracetam-like effects”.
